Data taken from EP4792822A1, “USE OF PEPTIDE AMIDE COMPOUND IN PREPARATION OF DRUG FOR […] AND VOMITING” (Haisco Pharmaceutical Group Co., Ltd., priority 2023, dated 2025).

System: subjects undergoing elective laparoscopic abdominal or gynaecological surgery under general anaesthesia
Assay: Example 3: placebo-controlled dose study of compound 1 injection for the prevention of postoperation nausea and vomiting
Type: in vivo, patients
Settings: for Complete response (CR) within 24 h after surgery: single intravenous bolus; for Significant nausea within 24 h after surgery: VAS score ≥ 4 cm; for subject satisfaction scores for PONV / time to the first occurrence of emesis (vomiting or retching) or administration of rescue treatment within 24 h after surgery: mean ± standard deviation
Description: Study period: Treatment duration: 24 h after surgery; Follow-up duration: 48 h after surgery
Protocol: This study was a multicentre, randomised, double-blind, placebo-controlled study. About 200 subjects undergoing elective laparoscopic abdominal or gynaecological surgery under general anaesthesia were planned to be enrolled and randomised at a 1 : 1 : 1 : 1 ratio into the compound 1-60 µg group (50 subjects), the compound 1-120 µg group (50 subjects), the compound 1-180 µg group (50 subjects), and the placebo group (50 subjects).
A single dose of the study drug was administered within 15 min before the end of surgery. The dosing regimen is as follows: Compound 1-60 µg group: A single dose of 60 µg of compound 1 injection was administered within 15 min before the end of surgery, via intravenous bolus injection, with an intravenous bolus injection time of not less than 30 s.
Compound 1-120 µg group: A single dose of 120 µg of compound 1 injection was administered within 15 min before the end of surgery, via intravenous bolus injection, with an intravenous bolus injection time of not less than 30 s.
Compound 1-180 µg group: A single dose of 180 µg of compound 1 injection was administered within 15 min before the end of surgery, via intravenous bolus injection, with an intravenous bolus injection time of not less than 30 s.
Placebo group: A single dose of placebo was administered within 15 min before the end of surgery, via intravenous bolus injection, with an intravenous bolus injection time of not less than 30 s.
Primary efficacy endpoint: Complete response (CR) rate at 24 h after surgery (CR is defined as no vomiting or retching and no use of rescue medication within 24 h after surgery).
Secondary efficacy endpoints: Proportion of subjects experiencing nausea after surgery; proportion of subjects experiencing significant nausea after surgery (significant nausea is defined as a VAS score ≥ 4 cm); proportion of subjects experiencing vomiting after surgery (vomiting [even with expulsion of a minimal amount of gastric contents] or retching [muscular movement of vomiting without expulsion of gastric contents]); proportion of subjects using rescue medication after surgery; time to the first occurrence of emesis (vomiting or retching) or administration of rescue treatment within 24 h after surgery, whichever occurs first; cumulative dosage of analgesic agents within 24 h after surgery; and subject and investigator satisfaction scores for PONV.
Safety endpoints: Incidence and severity of adverse events; and vital signs, 12-lead ECG, physical examination, and laboratory examinations.
Subjects who met all inclusion criteria and none of the exclusion criteria received a single dose of compound 1 injection or placebo within 15 min before the end of surgery (defined as the completion of the last suture of the wound).
The use of any antiemetic agents or agents with antiemetic effects, other than the study drug and rescue medications specified in the protocol, was prohibited from 24 h before the start of surgery (defined as the start of skin incision) to 24 h after the end of surgery. Prophylactic antiemetic treatment was prohibited.
Within 24 h after the end of surgery, if the subject experienced ≥ 1 episode of vomiting, retching, or nausea and complained of requiring antiemetic treatment, the subject received rescue antiemetic agents specified in the protocol after assessment by the investigator (tropisetron was the preferred rescue antiemetic agent; it was recommended that an initial intravenous dose of 2.5 mg be administered, followed by additional doses as needed, not to exceed 10 mg within 24 h). If tropisetron was insufficiently effective, other agents were used by the investigator in accordance with routine clinical practice.
Within 30 min after the end of surgery, a PCA pump containing morphine hydrochloride injection was initiated. Subjects self-administered analgesia by pressing the PCA pump when experiencing pain. […]

[1] = Example 3, compared with placebo

## CC(=O)N1CC2(CCN(C(=O)[C@@H](CCCCN)NC(=O)[C@@H](CC(C)C)NC(=O)[C@@H](Cc3ccccc3)NC(=O)[C@H](N)Cc3ccccc3)CC2)C1 [Compound 1, (2R)-N-[(1R)-1-(2-acetyl-2,7-diazaspiro[3.5]nonane-7-carbonyl)-5-amino-pentyl]-2-[[(2R)-2-[[(2R)-2-amino-3-phenyl-propionyl]amino]-3-phenylpropionyl]amino]-4-methyl-pentanamide]
60 µg group
  investigator satisfaction scores for PONV: 8.9 ± 1.84
  subject satisfaction scores for PONV: 9.0 ± 1.89
  time to the first occurrence of emesis (vomiting or retching) or administration of rescue treatment within 24 h after surgery: 18.3109 ± 9.6700 h
60 µg group (N = 49)
  Nausea within 24 h after surgery: 18 (36.7) n (%)
  Use of rescue medication within 24 h after surgery: 7 (14.3) n (%)
  Vomiting within 24 h after surgery: 12 (24.5) n (%)
  Complete response (CR) within 24 h after surgery: 36 (73.5) n (%)
  Significant nausea within 24 h after surgery: 9 (18.4) n (%)
120 µg group
  CR rate at 24 h after surgery, comparison among dose groups: highest CR rate
  investigator satisfaction scores for PONV: 8.9 ± 1.71
  subject satisfaction scores for PONV: 9.1 ± 1.52
  time to the first occurrence of emesis (vomiting or retching) or administration of rescue treatment within 24 h after surgery: 20.1119 ± 8.4192 h
120 µg group (N = 49)
  Nausea within 24 h after surgery: 11 (22.4) n (%)
  Use of rescue medication within 24 h after surgery: 6 (12.2) n (%)
  Vomiting within 24 h after surgery: 8 (16.3) n (%)
  Complete response (CR) within 24 h after surgery: 40 (81.6) n (%)
  Significant nausea within 24 h after surgery: 7 (14.3) n (%)
180 µg group
  investigator satisfaction scores for PONV: 9.0 ± 1.39
  subject satisfaction scores for PONV: 9.0 ± 1.65
  time to the first occurrence of emesis (vomiting or retching) or administration of rescue treatment within 24 h after surgery: 19.7203 ± 8.7225 h
180 µg group (N = 50)
  Nausea within 24 h after surgery: 16 (32.0) n (%)
  Use of rescue medication within 24 h after surgery: 8 (16.0) n (%)
  Vomiting within 24 h after surgery: 9 (18.0) n (%)
  Complete response (CR) within 24 h after surgery: 39 (78.0) n (%)
  Significant nausea within 24 h after surgery: 11 (22.0) n (%)
Example 3
  TEAEs leading to study withdrawal or death: no TEAEs leading to study withdrawal or death were observed
  TESAEs (treatment-emergent serious adverse events): No TESAEs (treatment-emergent serious adverse events) occurred
  overall safety: good overall safety
Example 3, all TEAEs and ADRs
  severity of TEAEs and ADRs: Grade 1-2
[1]
  incidence of ADRs: slightly higher than that in the placebo group
  overall incidence of TEAEs: lower than that in the placebo group
Each dose group
  proportion of subjects experiencing nausea, severe nausea, vomiting, and using rescue medication within 24 h after surgery, compared with placebo: lower than that in the placebo group
Each dose group (60, 120, 180 µg), P < 0.05
  complete response (CR) rate at 24 h after surgery, compared with placebo: higher than that in the placebo group
Each dose group, P < 0.05
  PONV satisfaction scores of investigators, compared with placebo: higher than those in the placebo group
  PONV satisfaction scores of subjects, compared with placebo: higher than those in the placebo group
  time to the first occurrence of emesis (vomiting or retching) or administration of rescue treatment within 24 h after surgery, compared with placebo: later than that in the placebo group
